Measured values from article doi:10.1101/2025.03.14.643404, “A Bivalent Molecular Glue Linking Lysine Acetyltransferases to Oncogene-induced Cell Death” (bioRxiv, 2025).
Read-outs that look alike come from different tables or passages of the source.

Columns and labels:
SUDHL5 cells [1] = experiment: Cell cycle analysis (EdU / 7-AAD) of SUDHL5; assay type: cell-based, human; conditions: SUDHL5, 10 nM, 24 hours
Description: 2 million SUDHL5 cells were plated in 4 mL of media in 6-well plates and treated with 10 nM of drug. After 22 hours, cells were dosed with 10 μM 5-ethynyl-2’-deoxyuridine (EdU) and allowed to incubate for an additional 2 hours, at which point cells were harvested and collected by centrifuging at 300g for 4 minutes at 4°C. Cells were washed once with 1% BSA in PBS. 1.1 million cells in 1% BSA/PBS were then transferred to flow cytometry polypropylene tubes and centrifuged at 300g for 4 minutes at 4°C. Supernatant was removed, and cells were fixed for 15 minutes in the dark at room temperature with 100 μL of 4% PFA in PBS, in which gentle flicking was used to resuspend cells. Cells were then washed with 1 mL of 1% BSA/PBS and permeabilized with 100 μL of 0.1% Triton-X for 30 minutes at room temperature in the dark. Cells were washed with 3 mL 1% BSA/PBS, then incubated in the dark for 30 minutes with a cocktail of AlexaFluor-488-Azide (438 μL PBS, 10 μL 100 mM CuSO4, 2 μL 488-azide, and 50 μL of 1x EdU Reaction Buffer dissolved in water) (Invitrogen C10337). Cells were washed with 1 mL 1% BSA in PBS, then incubated with a reaction cocktail of 7-AAD/RNAseA for 30 minutes in the dark (500 μL 1% BSA/PBS, 2 μL 7-AAD (BD 559925), 5 μL RNAseA (Invitrogen 12091021)). […] Cells were gently agitated by shaking, then analyzed through flow cytometry on a BD Accuri. […]

SUDHL5 cells [2] = experiment: Cell viability, 72 h compound treatment (PrestoBlue), SUDHL5; assay type: cell-based, human; conditions: SUDHL5, 72 h
Description: Thirty thousand cells were seeded in 100 μl of media per well of a 96-well plate and treated with drug for the indicated times and doses. A resazurin-based indicator of cell health (PrestoBlue; P50200, Thermo Fisher) was added for 1.5 h at 37°C, at which point the fluorescence ratio at 560/590 nm was recorded (Tecan Spark). The background fluorescence was subtracted, and the signal was normalized to DMSO-treated cells. IC50 measurements on cell lines were calculated using at least three biological replicates (separate cell passages). Fit of dose–response curves to data and statistical analysis was performed using GraphPad PRISM using the four-parameter log(inhibitor) vs response function.

BCL6^BTB = molecular target: T1, BCL6^BTB (Homo sapiens, UniProt P41182+Q09472, C67R/C84N/C8Q); experiment: Isothermal calorimetry, BCL6BTB titrations; assay type: binding; conditions: ITC; for Kd: 25 °C
T1 construct: human BCL6 (residues 5–129; Uniprot: P41182); Trx (N, cleaved yes); 6xHis (N, cleaved yes); made in house; host or cells: bacteria (pET-48b(+) vector)
Description: (§1) 12 hours prior to performing ITC, frozen stocks of 6xHis-p300^BD and BCL6^BTB were dialyzed for two hours in ITC buffer at 4°C (50 mM HEPES pH 7.4, 100 μM TCEP, 150 mM NaCl), followed by dialysis in fresh ITC buffer overnight at 4°C to remove glycerol and equalize protein mixtures. Samples were centrifuged at 10,000g for 10 min to remove any precipitate. In all titrations, DMSO was added to protein mixtures to match the DMSO concentration of ligand dissolved in ITC buffer. For binary assays with TCIP3, dialyzed 6xHis-p300^BD or BCL6^BTB were titrated from the syringe into a cell containing TCIP3 dissolved in ITC buffer. For p300 titrations, 50 μM or 25 μM protein was titrated into 5 μM or 2.5 μM, respectively, of TCIP3. For BCL6 titrations, 70 μM or 40 μM protein was titrated into 7 μM or 5 μM, respectively, of TCIP3. For ternary titrations, 20× 6xHis-p300^BD was incubated with 1x TCIP3 in the cell to drive saturation of the binary complex, followed by a titration of 10x BCL6^BTB from the syringe, at 310 rpm stirring at 25°C. The following concentrations were used in each run: 15 μM BCL6^BTB, 30 μM p300, and 1.5 μM TCIP3; 18 μM BCL6 ^BTB, 36 μM 6xHis-p300^BD, and 1.8 μM TCIP3; or 10 μM BCL6 ^BTB, 20 μM 6xHis-p300^BD, and 1 μM TCIP3. Alternatively, 20x BCL6^BTB was incubated with 1x TCIP3 in the cell to drive saturation of the binary complex, followed by a titration of 10× 6xHis-p300^BD from the syringe, at 310 rpm stirring at 25°C. The following concentrations were used in each run: 30 μM BCL6, 15 μM 6xHis-p300^BD, and 1.5 μM TCIP3; 20 μM BCL6 ^BTB, 10 μM 6xHis-p300^BD, and 1 μM TCIP3; or 40 μM BCL6 ^BTB, 20 μM 6xHis-p300^BD, and 2 μM TCIP3. The first one or two injections and outliers from instrument noise were routinely excluded. Data were fit to a one-site model using MicroCal LLC Origin software. The following injection parameters were used for each run: (Total injection number: 35; Cell temp: 25 °C; Ref power: 10; Initial delay: 250 s; stirring speed: 310; Feedback mode: High; volume: 8 μL; Duration: 13.7 s; Filter period: 2; initial injection volume: 2 μL).

p300^BD = molecular target: T2, p300^BD (Homo sapiens, UniProt Q09472); experiment: Isothermal calorimetry, p300BD titrations; assay type: binding; conditions: ITC; for Kd: 25 °C
T2 sequence (Q09472 1049-1156 limits assumed): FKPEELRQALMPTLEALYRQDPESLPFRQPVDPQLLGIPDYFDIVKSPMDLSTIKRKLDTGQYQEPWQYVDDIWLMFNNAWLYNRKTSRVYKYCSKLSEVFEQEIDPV
Description: as §1

IC50 (SUDHL5 cells [2]; Homo sapiens, SU-DHL-5, read-out: IC50 cell viability / antiproliferation): 0.8 nM
IC50 cell viability / antiproliferation (SUDHL5 cells [2]): sub-nanomolar
Kd (BCL6^BTB; BCL6BTB titrated into TCIP3, read-out: Kd, binary BCL6:TCIP3): 265 nM
Kd (BCL6^BTB; BCL6BTB titrated into p300BD-saturated TCIP3, read-out: Kd, BCL6 into p300:TCIP3 (ternary)): 19.8 nM
α BCL6 into p300:TCIP3 (BCL6^BTB; α = Kd binary/Kd ternary): 13
Kd (p300^BD; p300BD titrated into BCL6BTB-saturated TCIP3, read-out: Kd, p300 into BCL6:TCIP3 (ternary)): 2.37 nM
Kd (p300^BD; p300BD titrated into TCIP3, read-out: Kd, binary p300:TCIP3): 8.28 nM
α p300 into BCL6:TCIP3 (p300^BD; α = Kd binary/Kd ternary): 3.5
SMILES: CNC(=O)COc1cc2cc(Nc3nc(N4CCC(C(=O)N5CCN(CCC(=O)N6CCC(n7nc(N8CCCc9cc(-c%10cnn(C)c%10)c(C(F)F)cc98)c8c7CCN(C(=O)NC)C8)CC6)CC5)CC4)ncc3Cl)cc(OC)c2n(C)c1=O [TCIP3]
cell cycle effect (SUDHL5 cells [1]): enrichment in cells arrested in G0/G1
times more cytotoxic than either NEG1 or NEG2 (SUDHL5 cells [2]): over 1,000 times
times more potent than A-485 (SUDHL5 cells [2]): 238 times
times more potent than dCBP-1 (SUDHL5 cells [2]): 12 times
